In patent US7495008B2, “Spiro-piperidine derivatives” (Hoffmann-La Roche Inc., priority 2006, dated 2009):

Target: T1, human V1a receptor (Homo sapiens, UniProt P37288)
T1 construct: expressed in transfected cells; host or cells: HEK293 cells, transiently transfected; membranes prepared
Test: V1a receptor binding study (3H-Vasopressin SPA, HEK293 membranes)
Details: membranes of HEK293 cells transiently transfected with human V1a receptor, Ki by Cheng-Prussoff equation, read-out: pKi hV1a (converted)
Protocol: The human V1a receptor was cloned by RT-PCR from total human liver RNA. The coding sequence was subcloned in an expression vector after sequencing to confirm the identity of the amplified sequence. […] Cell membranes were prepared from HEK293 cells transiently transfected with the expression vector and grown in 20 liter fermenters with the following protocol.
50 g of cells were resuspended in 30 ml freshly prepared ice cold Lysis buffer (50 mM HEPES, 1 mM EDTA, 10 mM MgCl2 adjusted to pH=7.4+complete cocktail of protease inhibitor (Roche Diagnostics)); homogenized with Polytron for 1 min; and sonicated on ice for 2×2 minutes at 80% intensity (Vibracell sonicator). The preparation was centrifuged 20 min at 500 g at 4° C., the pellet was discarded and the supernatant centrifuged 1 hour at 43,000 g at 4° C. (19,000 rpm). The pellet was resuspended in 12.5 ml Lysis buffer+12.5 ml Sucrose 20% and homogenized using a Polytron for 1-2 min. The protein concentration was determined by the Bradford method and aliquots were stored at −80° C. until use. For binding studies 60 mg Yttrium silicate SPA beads (Amersham) were mixed with an aliquot of membrane in binding buffer (50 mM Tris, 120 mM NaCl, 5 mM KCl, 2 mM CaCl2, 10 mM MgCl2) for 15 minutes with mixing. 50 ul of bead/membrane mixture was then added to each well of a 96 well plate, followed by 50 ul of 4 nM 3H-Vasopressin (American Radiolabeled Chemicals). For total binding measurement 100 ul of binding buffer were added to the respective wells, for non-specific binding 100 ul of 8.4 mM cold vasopressin and for compound testing 100 ul of a serial dilution of each compound in 2% DMSO. The plate was incubated 1 h at room temperature, centrifuged 1 min at 1000 g and counted on a Packard Top-Count. Non-specific binding counts were subtracted from each well and data was normalized to the maximum specific binding set at 100%. To calculate an IC 50 the curve was fitted using a non-linear regression model (XLfit), and the Ki was calculated using the Cheng-Prussoff equation.

T1 sequence (P37288 whole entry): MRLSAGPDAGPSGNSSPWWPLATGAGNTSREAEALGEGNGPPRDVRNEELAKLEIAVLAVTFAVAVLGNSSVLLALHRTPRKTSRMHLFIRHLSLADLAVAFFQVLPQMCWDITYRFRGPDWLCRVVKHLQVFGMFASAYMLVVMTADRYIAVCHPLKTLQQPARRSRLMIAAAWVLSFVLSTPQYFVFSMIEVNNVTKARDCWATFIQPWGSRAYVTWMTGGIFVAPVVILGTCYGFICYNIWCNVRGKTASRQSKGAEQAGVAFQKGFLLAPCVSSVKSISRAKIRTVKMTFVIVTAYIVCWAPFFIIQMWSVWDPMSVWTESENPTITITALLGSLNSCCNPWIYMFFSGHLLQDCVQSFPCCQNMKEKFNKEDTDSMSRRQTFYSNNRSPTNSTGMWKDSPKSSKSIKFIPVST

SMILES | Ki [µM]
COc1ccc2c(c1)CC(C(=O)N1CCC3(CC1)OCc1ccccc13)S2 (stereo not shown) [Example 4, 1′-[(5-Methoxy-2,3-dihydro-1-benzothien-2-yl)carbonyl]-3H-spiro[2-benzofuran-1,4′-piperidine]] | 0.0631
CCc1cc(Br)cc2cc(C(=O)N3CCC4(CC3)OCc3ccccc34)oc12 [Example 6, 1′-[(5-Bromo-7-ethyl-1-benzofuran-2-yl)carbonyl]-3H-spiro[2-benzofuran-1,4′-piperidine]] | 0.0501
O=C(c1nc2cc(Cl)ccc2[nH]1)N1CCC2(CC1)OCc1ccccc12 [Example 9, 1′-[(5-Chloro-1H-benzimidazol-2-yl)carbonyl]-3H-spiro[2-benzofuran-1,4′-piperidine]] | 0.0316
COc1ccc2c(c1)C1(CCN(C(=O)c3cc4cccnc4[nH]3)CC1)OC2=O [Example 14, 6-Methoxy-1′-(1H-pyrrolo[2,3-b]pyridin-2-ylcarbonyl)-3H-spiro[2-benzofuran-1,4′-piperidin]-3-one] | 0.2

Other lines, results leading:

Ki [µM] | SMILES
0.0631 | CC1=C(C(=O)N2CC[C@@]3(OC(=O)c4ccccc43)[C@@H](C)C2)Cc2ccccc21 (racemic) [Example 10, (1RS,3′SR)-3′-Methyl-1′-[(3-methyl-1H-inden-2-yl)carbonyl]-3H-spiro[2-benzofuran-1,4′-piperidin]-3-one]
0.0251 | O=C(c1cc2ccccc2s1)N1CCC2(CC1)OCc1ccccc12 [Example 1, 1′-(1-Benzothien-2-ylcarbonyl)-3H-spiro[2-benzofuran-1,4′-piperidine]]
0.0501 | COc1cccc2cc(C(=O)N3CCC4(CC3)OCc3ccccc34)sc12 [Example 2, 1′-[(7-Methoxy-1-benzothien-2-yl)carbonyl]-3H-spiro[2-benzofuran-1,4′-piperidine]]
